Measured values from US4450269A, “Mono-5-substituted-3-chloro-4H-1,2,6-thiadiazin-4-one antifungal agents” (FMC Corporation, priority 1980, dated 1984).
Where a name gives a salt, the structure may show the parent alone.

Legend:
Assay in all cases: Spore germination test
Format in all cases: cell-based
Botrytis cinerea = conditions: BC, 48 hours
Procedure, shortened: (§1)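 Compound was delivered in acetone into water agar at final 40, 10, 2.5 and 1 ppm. Alternaria solani and Botrytis cinerea spores were applied as sterile-water suspensions, while Erysiphe polygoni and Uromyces phaseoli spores were brushed on from infected leaves. After 48 h at 24° C., percentage germination was converted to a rating.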

Alternaria solani = conditions: AS, 48 hours
Procedure, shortened: as §1

Uromyces phaseoli = conditions: UP, 48 hours
Procedure, shortened: as §1

Compound: O=c1c(Cl)nsnc1Oc1cccc(C(F)(F)F)c1 [Compound 44, 3-chloro-5-[(3-trifluoromethyl)phenoxy]-4H--1,2,6-thiadiazin-4-one]
- Spore Germination Rating (Botrytis cinerea; 1.0 ppm): 4 (80-100)
- Spore Germination Rating (Botrytis cinerea; 2.5 ppm): 3 (60-80)
- Spore Germination Rating (Botrytis cinerea; 10 ppm): 0 (0-10)
- Spore Germination Rating (Botrytis cinerea; 40 ppm): 0 (0-10)
- Spore Germination Rating (Alternaria solani; 1.0 ppm): 4 (80-100)
- Spore Germination Rating (Alternaria solani; 2.5 ppm): 1 (10-40)
- Spore Germination Rating (Alternaria solani; 10 ppm): 0 (0-10)
- Spore Germination Rating (Alternaria solani; 40 ppm): 0 (0-10)
- Spore Germination Rating (Uromyces phaseoli; 1.0 ppm): 1 (10-40)
- Spore Germination Rating (Uromyces phaseoli; 2.5 ppm): 0 (0-10)
- Spore Germination Rating (Uromyces phaseoli; 10 ppm): 0 (0-10)
- Spore Germination Rating (Uromyces phaseoli; 40 ppm): 0 (0-10)

Compound: C[S+]([O-])c1ccc(Oc2nsnc(Cl)c2=O)cc1 (stereo not shown) [Compound 40, 3-chloro-5-[(4-methylsulfinyl)phenoxy]-4H-1,2,6,-thiadiazin-4-one]
- Spore Germination Rating (Botrytis cinerea; 1.0 ppm): 4 (80-100)
- Spore Germination Rating (Botrytis cinerea; 2.5 ppm): 4 (80-100)
- Spore Germination Rating (Botrytis cinerea; 10 ppm): 4 (80-100)
- Spore Germination Rating (Botrytis cinerea; 40 ppm): 3 (60-80)
- Spore Germination Rating (Alternaria solani; 1.0 ppm): 4 (80-100)
- Spore Germination Rating (Alternaria solani; 2.5 ppm): 2 (40-60)
- Spore Germination Rating (Alternaria solani; 10 ppm): 1 (10-40)
- Spore Germination Rating (Alternaria solani; 40 ppm): 0 (0-10)
- Spore Germination Rating (Uromyces phaseoli; 1.0 ppm): 3 (60-80)
- Spore Germination Rating (Uromyces phaseoli; 2.5 ppm): 2 (40-60)
- Spore Germination Rating (Uromyces phaseoli; 10 ppm): 1 (10-40)
- Spore Germination Rating (Uromyces phaseoli; 40 ppm): 1 (10-40)

Compound: Cc1ccc(Oc2nsnc(Cl)c2=O)c(C)c1 [Compound 23, 3-chloro-5-(2,4-dimethylphenoxy)-4H--1,2,6-thiadiazin-4-one]
- Spore Germination Rating (Botrytis cinerea; 1.0 ppm): 4 (80-100)
- Spore Germination Rating (Botrytis cinerea; 2.5 ppm): 4 (80-100)
- Spore Germination Rating (Botrytis cinerea; 10 ppm): 4 (80-100)
- Spore Germination Rating (Botrytis cinerea; 40 ppm): 0 (0-10)
- Spore Germination Rating (Alternaria solani; 1.0 ppm): 3 (60-80)
- Spore Germination Rating (Alternaria solani; 2.5 ppm): 3 (60-80)
- Spore Germination Rating (Alternaria solani; 10 ppm): 0 (0-10)
- Spore Germination Rating (Alternaria solani; 40 ppm): 0 (0-10)
- Spore Germination Rating (Uromyces phaseoli; 1.0 ppm): 4 (80-100)
- Spore Germination Rating (Uromyces phaseoli; 2.5 ppm): 4 (80-100)
- Spore Germination Rating (Uromyces phaseoli; 10 ppm): 1 (10-40)
- Spore Germination Rating (Uromyces phaseoli; 40 ppm): 0 (0-10)

Compound: CSc1ccc(Oc2nsnc(Cl)c2=O)cc1 [Compound 39, 3-chloro-5-[(4-methylthio)phenoxy]-4H-1,2,6,-thiadiazin-4-one]
- Spore Germination Rating (Botrytis cinerea; 1.0 ppm): 4 (80-100)
- Spore Germination Rating (Botrytis cinerea; 2.5 ppm): 4 (80-100)
- Spore Germination Rating (Botrytis cinerea; 10 ppm): 4 (80-100)
- Spore Germination Rating (Botrytis cinerea; 40 ppm): 3 (60-80)
- Spore Germination Rating (Alternaria solani; 1.0 ppm): 4 (80-100)
- Spore Germination Rating (Alternaria solani; 2.5 ppm): 3 (60-80)
- Spore Germination Rating (Alternaria solani; 10 ppm): 2 (40-60)
- Spore Germination Rating (Alternaria solani; 40 ppm): 0 (0-10)
- Spore Germination Rating (Uromyces phaseoli; 1.0 ppm): 2 (40-60)
- Spore Germination Rating (Uromyces phaseoli; 2.5 ppm): 2 (40-60)
- Spore Germination Rating (Uromyces phaseoli; 10 ppm): 2 (40-60)
- Spore Germination Rating (Uromyces phaseoli; 40 ppm): 0 (0-10)

Compound: CC(=O)Nc1cccc(Oc2nsnc(Cl)c2=O)c1 [Compound 42, 3-[(3-N--acetylamino)-phenoxy]-5-chloro-4H--1,2,6-thiadiazin-4-one]
- Spore Germination Rating (Botrytis cinerea; 1.0 ppm): 4 (80-100)
- Spore Germination Rating (Botrytis cinerea; 2.5 ppm): 4 (80-100)
- Spore Germination Rating (Botrytis cinerea; 10 ppm): 4 (80-100)
- Spore Germination Rating (Botrytis cinerea; 40 ppm): 1 (10-40)
- Spore Germination Rating (Alternaria solani; 1.0 ppm): 4 (80-100)
- Spore Germination Rating (Alternaria solani; 2.5 ppm): 4 (80-100)
- Spore Germination Rating (Alternaria solani; 10 ppm): 4 (80-100)
- Spore Germination Rating (Alternaria solani; 40 ppm): 2 (40-60)
- Spore Germination Rating (Uromyces phaseoli; 1.0 ppm): 4 (80-100)
- Spore Germination Rating (Uromyces phaseoli; 2.5 ppm): 3 (60-80)
- Spore Germination Rating (Uromyces phaseoli; 10 ppm): 1 (10-40)
- Spore Germination Rating (Uromyces phaseoli; 40 ppm): 0 (0-10)

Compound: COc1cc(Cl)cc(Oc2nsnc(Cl)c2=O)c1 [Compound 52, 3-chloro-5-[(3-chloro-5-methoxy)phenoxy]-4H--1,2,6-thiadiazin-4-one]
- Spore Germination Rating (Botrytis cinerea; 1.0 ppm): 4 (80-100)
- Spore Germination Rating (Botrytis cinerea; 2.5 ppm): 3 (60-80)
- Spore Germination Rating (Botrytis cinerea; 10 ppm): 0 (0-10)
- Spore Germination Rating (Botrytis cinerea; 40 ppm): 0 (0-10)
- Spore Germination Rating (Alternaria solani; 1.0 ppm): 4 (80-100)
- Spore Germination Rating (Alternaria solani; 2.5 ppm): 3 (60-80)
- Spore Germination Rating (Alternaria solani; 10 ppm): 0 (0-10)
- Spore Germination Rating (Alternaria solani; 40 ppm): 0 (0-10)
- Spore Germination Rating (Uromyces phaseoli; 1.0 ppm): 2 (40-60)
- Spore Germination Rating (Uromyces phaseoli; 2.5 ppm): 0 (0-10)
- Spore Germination Rating (Uromyces phaseoli; 10 ppm): 0 (0-10)
- Spore Germination Rating (Uromyces phaseoli; 40 ppm): 0 (0-10)

Compound: N#Cc1ccc(Oc2nsnc(Cl)c2=O)cc1 [Compound 10, 3-chloro-5-(4-cyanophenoxy)-4H--1,2,6-thiadiazin-4-one]
- Spore Germination Rating (Botrytis cinerea; 1.0 ppm): 2 (40-60)
- Spore Germination Rating (Botrytis cinerea; 2.5 ppm): 0 (0-10)
- Spore Germination Rating (Botrytis cinerea; 10 ppm): 0 (0-10)
- Spore Germination Rating (Botrytis cinerea; 40 ppm): 0 (0-10)
- Spore Germination Rating (Alternaria solani; 1.0 ppm): 1 (10-40)
- Spore Germination Rating (Alternaria solani; 2.5 ppm): 1 (10-40)
- Spore Germination Rating (Alternaria solani; 10 ppm): 1 (10-40)
- Spore Germination Rating (Alternaria solani; 40 ppm): 1 (10-40)
- Spore Germination Rating (Uromyces phaseoli; 1.0 ppm): 0 (0-10)
- Spore Germination Rating (Uromyces phaseoli; 2.5 ppm): 0 (0-10)
- Spore Germination Rating (Uromyces phaseoli; 10 ppm): 0 (0-10)
- Spore Germination Rating (Uromyces phaseoli; 40 ppm): 0 (0-10)

Compound: O=c1c(Cl)nsnc1Oc1ccccc1Br [Compound 34, 3-chloro-5-(2-bromophenoxy)-4H-1,2,6,-thiadiazin-4-one]
- Spore Germination Rating (Botrytis cinerea; 1.0 ppm): 2 (40-60)
- Spore Germination Rating (Botrytis cinerea; 2.5 ppm): 0 (0-10)
- Spore Germination Rating (Botrytis cinerea; 10 ppm): 0 (0-10)
- Spore Germination Rating (Botrytis cinerea; 40 ppm): 0 (0-10)
- Spore Germination Rating (Alternaria solani; 1.0 ppm): 4 (80-100)
- Spore Germination Rating (Alternaria solani; 2.5 ppm): 1 (10-40)
- Spore Germination Rating (Alternaria solani; 10 ppm): 0 (0-10)
- Spore Germination Rating (Alternaria solani; 40 ppm): 0 (0-10)
- Spore Germination Rating (Uromyces phaseoli; 1.0 ppm): 0 (0-10)
- Spore Germination Rating (Uromyces phaseoli; 2.5 ppm): 0 (0-10)
- Spore Germination Rating (Uromyces phaseoli; 10 ppm): 0 (0-10)
- Spore Germination Rating (Uromyces phaseoli; 40 ppm): 0 (0-10)

Compound: Cc1cc(Oc2nsnc(Cl)c2=O)cc(C)c1Cl [Compound 59, 3-chloro-5-[(4-chloro-3,5-dimethyl)phenoxy]-4H--1,2,6-thiadiazin-4-one]
- Spore Germination Rating (Botrytis cinerea; 1.0 ppm): 4 (80-100)
- Spore Germination Rating (Botrytis cinerea; 2.5 ppm): 4 (80-100)
- Spore Germination Rating (Botrytis cinerea; 10 ppm): 4 (80-100)
- Spore Germination Rating (Botrytis cinerea; 40 ppm): 3 (60-80)
- Spore Germination Rating (Alternaria solani; 1.0 ppm): 4 (80-100)
- Spore Germination Rating (Alternaria solani; 2.5 ppm): 4 (80-100)
- Spore Germination Rating (Alternaria solani; 10 ppm): 4 (80-100)
- Spore Germination Rating (Alternaria solani; 40 ppm): 4 (80-100)
- Spore Germination Rating (Uromyces phaseoli; 1.0 ppm): 2 (40-60)
- Spore Germination Rating (Uromyces phaseoli; 2.5 ppm): 2 (40-60)
- Spore Germination Rating (Uromyces phaseoli; 10 ppm): 0 (0-10)
- Spore Germination Rating (Uromyces phaseoli; 40 ppm): 0 (0-10)

Compound: Cc1cc(C)cc(Oc2nsnc(Cl)c2=O)c1 [Compound 25, 3-chloro-5-(3,5-dimethylphenoxy)-4H--1,2,6-thiadiazin-4-one]
- Spore Germination Rating (Botrytis cinerea; 1.0 ppm): 2 (40-60)
- Spore Germination Rating (Botrytis cinerea; 2.5 ppm): 1 (10-40)
- Spore Germination Rating (Botrytis cinerea; 10 ppm): 0 (0-10)
- Spore Germination Rating (Botrytis cinerea; 40 ppm): 0 (0-10)
- Spore Germination Rating (Alternaria solani; 1.0 ppm): 4 (80-100)
- Spore Germination Rating (Alternaria solani; 2.5 ppm): 2 (40-60)
- Spore Germination Rating (Alternaria solani; 10 ppm): 0 (0-10)
- Spore Germination Rating (Alternaria solani; 40 ppm): 0 (0-10)
- Spore Germination Rating (Uromyces phaseoli; 1.0 ppm): 4 (80-100)
- Spore Germination Rating (Uromyces phaseoli; 2.5 ppm): 2 (40-60)
- Spore Germination Rating (Uromyces phaseoli; 10 ppm): 1 (10-40)
- Spore Germination Rating (Uromyces phaseoli; 40 ppm): 0 (0-10)

Compound: O=c1c(Cl)nsnc1Oc1c(Cl)c(Cl)c(Cl)c(Cl)c1Cl [Compound 31, 3-chloro-5-(pentachlorophenoxy)-4H--1,2,6-thiadiazine-4-one]
- Spore Germination Rating (Botrytis cinerea; 1.0 ppm): 1 (10-40)
- Spore Germination Rating (Botrytis cinerea; 2.5 ppm): 1 (10-40)
- Spore Germination Rating (Botrytis cinerea; 10 ppm): 1 (10-40)
- Spore Germination Rating (Botrytis cinerea; 40 ppm): 0 (0-10)
- Spore Germination Rating (Alternaria solani; 1.0 ppm): 4 (80-100)
- Spore Germination Rating (Alternaria solani; 2.5 ppm): 1 (10-40)
- Spore Germination Rating (Alternaria solani; 10 ppm): 0 (0-10)
- Spore Germination Rating (Alternaria solani; 40 ppm): 0 (0-10)
- Spore Germination Rating (Uromyces phaseoli; 1.0 ppm): 0 (0-10)
- Spore Germination Rating (Uromyces phaseoli; 2.5 ppm): 0 (0-10)
- Spore Germination Rating (Uromyces phaseoli; 10 ppm): 0 (0-10)
- Spore Germination Rating (Uromyces phaseoli; 40 ppm): 0 (0-10)

Compound: Nc1ccc(Oc2nsnc(Cl)c2=O)cc1 [Compound 27, 5-(4-aminophenoxy)-3-chloro-4H--1,2,6-thiadiazine-4-one hydrochloride]
- Spore Germination Rating (Botrytis cinerea; 1.0 ppm, hydrochloride): 1 (10-40)
- Spore Germination Rating (Alternaria solani; 2.5 ppm, hydrochloride): 4 (80-100)
- Spore Germination Rating (Alternaria solani; 10 ppm, hydrochloride): 3 (60-80)
- Spore Germination Rating (Uromyces phaseoli; 1.0 ppm, hydrochloride): 4 (80-100)
- Spore Germination Rating (Uromyces phaseoli; 2.5 ppm, hydrochloride): 1 (10-40)
- Spore Germination Rating (Uromyces phaseoli; 10 ppm, hydrochloride): 1 (10-40)
- Spore Germination Rating (Uromyces phaseoli; 40 ppm, hydrochloride): 0 (0-10)

Compound: COc1cc(Oc2nsnc(Cl)c2=O)cc(OC)c1C(C)=O [Compound 61, 3-[(4-acetyl-3,5-dimethoxy)-phenoxy]-5-chloro-4H--1,2,6-thiadiazin-4-one]
- Spore Germination Rating (Botrytis cinerea; 1.0 ppm): 4 (80-100)
- Spore Germination Rating (Botrytis cinerea; 2.5 ppm): 4 (80-100)
- Spore Germination Rating (Botrytis cinerea; 10 ppm): 3 (60-80)
- Spore Germination Rating (Botrytis cinerea; 40 ppm): 2 (40-60)
- Spore Germination Rating (Alternaria solani; 1.0 ppm): 4 (80-100)
- Spore Germination Rating (Alternaria solani; 2.5 ppm): 3 (60-80)
- Spore Germination Rating (Alternaria solani; 10 ppm): 2 (40-60)
- Spore Germination Rating (Alternaria solani; 40 ppm): 2 (40-60)
- Spore Germination Rating (Uromyces phaseoli; 1.0 ppm): 2 (40-60)
- Spore Germination Rating (Uromyces phaseoli; 2.5 ppm): 1 (10-40)
- Spore Germination Rating (Uromyces phaseoli; 10 ppm): 2 (40-60)
- Spore Germination Rating (Uromyces phaseoli; 40 ppm): 0 (0-10)
